This passage reports koff and percent of particles that are TRAPPII dimers results from article PMC6946167, “Characterization of Aspergillus nidulans TRAPPs uncovers unprecedented similarities between fungi and metazoans and reveals the modular assembly of TRAPPII” (PLoS Genetics, 2019).

In assay [1] the target is T1, RAB1 (RabO) (Aspergillus nidulans, UniProt C8V3Z5).
T1 construct: gene ANIA_04281; GST fusion, expressed in E. coli, purified on glutathione-Sepharose 4B, GDP-loaded; GST not reported cut
Description: GDP/mant-GDP exchange, Trp-to-mant FRET ([…] nm), exponential fit. The assay is classed as binding. To be noted: 5 uM GDP-loaded GST-RAB1, 50 uM mant-GDP, 10 mM MgCl2, 10 mM KCl, 2 mM DTT, 50 mM Tris-HCl pH 7.5, 30 C; no GEF.

Assay [2] deals with TRAPPII from tca17Δ cells (Aspergillus nidulans). As to the kind of experiment: negative-stain electron microscopy; Trs120-S-purified complexes eluted from S-agarose with S-peptide, concentrated, stained with 2% uranyl acetate; single particle 2D classification.

T1 sequence (C8V3Z5 entry or part of it): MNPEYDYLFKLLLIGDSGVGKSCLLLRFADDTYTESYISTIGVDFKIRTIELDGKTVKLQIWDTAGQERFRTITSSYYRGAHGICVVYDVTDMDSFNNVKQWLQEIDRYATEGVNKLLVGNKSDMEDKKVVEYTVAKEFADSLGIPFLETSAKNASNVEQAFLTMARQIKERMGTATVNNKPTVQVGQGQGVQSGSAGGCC

Consider `Nc1nc2c(ncn2[C@@H]2O[C@H](COP(=O)(O)OP(=O)(O)O)[C@@H](O)[C@H]2O)c(=O)[nH]1` [GDP], for which the koff result in assay [1] is “Time courses of mant-GDP exchange for GDP were used to calculate the observed koff of GDP”.

Compound TRAPPII from tca17Δ cells (complex) registered a percent of particles that are TRAPPII dimers in assay [2] of 12%.
